Experimental data: article PMC8623215, “Zhaoshumycins A and B, Two Unprecedented Antimycin-Type Depsipeptides Produced by the Marine-Derived Streptomyces sp. ITBB-ZKa6” (Marine Drugs, 2021)

Test system: MCF7 human breast cancer cell line
Assay: Cytotoxic activity test, MTT method, MCF7 cells
Format: cell-based
Conditions: for inhibition rate: compound at 50 µM, dissolved in DMSO
Excerpt: Dimethyl sulfoxide (DMSO) was used to dissolve the tested compounds.

neoantimycin E [Compound 6]
inhibition rate: 90.53%

neoantimycin D [Compound 5]
inhibition rate: 91.08%
cytotoxic activity (in words) (preliminary in vitro test): weak cytotoxic activity
